Results as given in patent US5962502A, “Polyamidic acid derivatives with antigastrin activity, a method for their preparation, and their pharmaceutical use” (priority 1993, dated 1999).

Assays:
central CCK-B receptor = biological target: T1, central CCK-B receptor (Cavia porcellus, UniProt H0VZC5); assay: Inhibition of the binding of [3-H][N-methyl-N-leucine]CCK-8 to guinea-pig cortical membranes; conditions: for IC50: 150 minutes at 25° C.
T1 construct: Cerebral cortices of male white guinea-pigs were thus used; from tissue; host or cells: cerebral cortex membranes of male white guinea-pigs
T1 sequence (H0VZC5 1-426): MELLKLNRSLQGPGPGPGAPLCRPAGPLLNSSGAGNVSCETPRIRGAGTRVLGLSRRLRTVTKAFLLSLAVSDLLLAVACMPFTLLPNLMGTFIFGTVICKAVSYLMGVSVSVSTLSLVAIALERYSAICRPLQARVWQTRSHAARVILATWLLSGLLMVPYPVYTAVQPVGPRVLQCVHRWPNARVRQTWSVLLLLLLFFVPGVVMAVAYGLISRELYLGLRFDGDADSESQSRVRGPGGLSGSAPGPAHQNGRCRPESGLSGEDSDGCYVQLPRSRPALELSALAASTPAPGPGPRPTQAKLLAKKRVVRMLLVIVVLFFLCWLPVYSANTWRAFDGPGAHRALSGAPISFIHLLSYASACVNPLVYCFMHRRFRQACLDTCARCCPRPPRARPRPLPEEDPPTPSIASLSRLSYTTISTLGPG
Description: The ability of the compounds of the invention to interact with the central CCK-B receptor was evaluated with the use of non-sulphated [3-H] […] 225 (3) (1990), 1278-1286].
Cerebral cortices of male white guinea-pigs were thus used, according to the method mentioned above, so as to obtain a membrane content corresponding to about 300 mcg of proteins/ml. The membranes were incubated together with the radioactive tracer and the compounds under test for 150 minutes at 25° C. After the supernatant had been discarded, the radioactivity associated with the pellet was determined with a liquid scintillator. The specific binding was determined as the difference between the binding in the absence and in the presence of 5.10^-6 M CCK-8.

[1] = biological target: T2, gastrin receptors or type-B cholecystokinin (CCK-B) receptors (Oryctolagus cuniculus, UniProt P46627); assay: Inhibition of the gastrin-induced increase of cytosolic calcium in rabbit gastric mucous-membrane cells (Fura 2); assay type: cell-based; conditions: for Ratio IC50 Binding cortex / IC50 (gastric mucous cells): binding values taken from Table 3; for IC50, inhibition of the increase of cytosolic calcium: rabbit gastric mucous cells enriched in parietal cells, gastrin 5×10^-8; for CCK-B-antagonistic activity IC50 (II): data taken from Table 4 (rabbit gastric mucous cells), reprinted in Table 6
T2 construct: Rabbit gastric mucous-membrane cells were prepared by conventional techniques; endogenous in cells; host or cells: freshly isolated rabbit gastric mucosal cells, enriched by elutriation to about 70% parietal cells
T2 sequence (P46627 1-452): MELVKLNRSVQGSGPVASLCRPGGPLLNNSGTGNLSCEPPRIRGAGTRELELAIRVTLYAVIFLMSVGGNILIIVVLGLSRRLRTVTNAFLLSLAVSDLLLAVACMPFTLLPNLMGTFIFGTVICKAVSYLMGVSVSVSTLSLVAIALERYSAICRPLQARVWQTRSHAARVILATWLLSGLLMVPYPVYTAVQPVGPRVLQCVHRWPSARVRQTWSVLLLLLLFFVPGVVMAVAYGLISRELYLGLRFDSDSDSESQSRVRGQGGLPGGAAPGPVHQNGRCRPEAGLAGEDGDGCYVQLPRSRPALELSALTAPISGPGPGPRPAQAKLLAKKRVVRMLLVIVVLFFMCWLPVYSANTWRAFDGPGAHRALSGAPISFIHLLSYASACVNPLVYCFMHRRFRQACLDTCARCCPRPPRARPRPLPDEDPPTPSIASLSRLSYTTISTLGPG
Excerpt: The parietal cells of the gastric mucous membrane are responsible for the secretion of HCl. They have specific membrane receptors which can be activated by gastrin and which have been defined as gastrin receptors or type-B cholecystokinin (CCK-B) receptors. Since it has been observed that the activation of the CCK-B receptors by gastrin leads to an increase in the cytosolic levels of calcium ions, a technique involving the measurement of the increase in intracellular calcium induced by gastrin in the presence and in the absence of the compounds of the invention was used as an index of the antigastrin activity of the compounds. Rabbit gastric mucous-membrane cells were prepared by conventional techniques with the use of collagenase and pronase as digestive enzymes. The cellular preparation obtained by the enzymatic digestion was composed of parietal cells, zymogen cells and mucous-membrane cells. […] The cells were then washed and resuspended in a saline solution buffered with HEPES containing, in mM: […] Each measurement was carried out on cells in suspension (0.8×10^6 /ml) at a thermostatically-controlled temperature of 37° C. and with constant magnetic stirring. The fluorescence was recorded with the use of a spectrofluorometer. The operative wavelengths were 340/380 nm for excitation and 505 nm for emission. […] Biol. Chem. 260 (1985), 3440]. […] The results thus obtained for some compounds of the invention are given in Table 4, which also gives an index derived from the ratio between the peripheral antigastrin activity just described and the displacement activity found in the test on binding to the guinea-pig cortex receptors described above.

CCK-A = biological target: T3, CCK-A (Cavia porcellus, UniProt Q63931); assay: Anti-CCK-A activity on guinea-pig gall bladder stimulated in vitro by CCK-8; conditions: for Ratio I/II (CCK-A IC50 / CCK-B IC50): gall bladder IC50 over gastric mucous cells IC50; for IC50: guinea-pig gall bladder in vitro, CCK-8 10 ng/ml, read-out: CCK-A-antagonistic activity IC50 (I)
T3 construct: A longitudinal strip of guinea-pig gall-bladder was put in a bath for isolated organs; from tissue; host or cells: guinea-pig gall bladder longitudinal strip
T3 sequence (Q63931 1-430): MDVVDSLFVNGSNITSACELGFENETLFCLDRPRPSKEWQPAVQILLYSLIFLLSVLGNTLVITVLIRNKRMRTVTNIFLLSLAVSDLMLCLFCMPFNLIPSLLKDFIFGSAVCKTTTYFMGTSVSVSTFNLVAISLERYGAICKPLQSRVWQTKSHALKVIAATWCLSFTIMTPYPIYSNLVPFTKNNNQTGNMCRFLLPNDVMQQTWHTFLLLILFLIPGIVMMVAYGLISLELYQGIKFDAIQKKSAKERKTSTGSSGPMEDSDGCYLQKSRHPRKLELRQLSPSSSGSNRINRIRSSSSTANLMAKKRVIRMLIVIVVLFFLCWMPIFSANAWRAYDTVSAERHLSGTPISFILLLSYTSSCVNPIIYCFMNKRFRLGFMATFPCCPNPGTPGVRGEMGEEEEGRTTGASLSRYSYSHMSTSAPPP
Description: The experimental model used was guinea-pig gall bladder stimulated in vitro by CCK-8, with the use of lorglumide as the reference standard. A longitudinal strip of guinea-pig gall-bladder was put in a bath for isolated organs in the presence of Krebs buffer at a temperature of 32° C., with continuous oxygenation with an oxygen-CO2 mixture (95-[…]). The isometric contractions were detected by means of a force transducer and recorded.

Row | IC50 (central CCK-B receptor; guinea-pig cortical membranes) [nM] | Ratio IC50 Binding cortex / IC50 (gastric mucous cells) [1] | IC50, inhibition of the increase of cytosolic calcium [1] | inhibition of the binding of [N-methyl-N-leucine]CCK-8, result in words (central CCK-B receptor; guinea-pig cortical membranes) | IC50 order of magnitude, peripheral antigastrin activity ([1]; rabbit gastric mucous cells) | CCK-B-antagonistic activity IC50 (II) [1] [nM] | Ratio I/II (CCK-A IC50 / CCK-B IC50) (CCK-A) | IC50 (CCK-A) [nM] | times more active than the corresponding diastereoisomer at the carbon atom (**) (central CCK-B receptor; binding, guinea-pig cortex) | Compound
1 | 730 | 10.4 | 70 nM |  |  |  |  |  | about twice | CC1(C)CCC(NC(=O)[C@H](CCC(=O)O)NC(=O)CC[C@@H](NC(=O)c2cc(Cl)cc(Cl)c2)C(=O)N2CCC3(CCCC3)CC2)CC1 [Compound 34]
2 | 1700 | 14.2 | 120 nM |  |  |  |  |  |  | CC1(C)CCC(NC(=O)[C@@H](CCC(=O)O)NC(=O)CC[C@@H](NC(=O)c2cc(Cl)cc(Cl)c2)C(=O)N2CCC3(CCCC3)CC2)CC1 [Compound 35]
3 | 1030 | 14.7 | 70 nM |  |  |  |  |  |  | O=C(C[C@@H](NC(=O)c1cc(Cl)cc(Cl)c1)C(=O)N1CCC2(CCCC2)CC1)N[C@H](Cc1c[nH]c2ccccc12)C(=O)O [Compound 43]
4 | 1720 | 4.5 | 380 nM |  |  |  |  |  |  | O=C(CC[C@@H](NC(=O)c1cc(Cl)cc(Cl)c1)C(=O)N1CCC2(CCCC2)CC1)Nc1ccc(C(=O)O)cc1 [Compound 47]
5 | 2770 | 1.2 | 2330 nM |  |  |  |  |  |  | Cc1cc(C(=O)O)ccc1NC(=O)CC[C@@H](NC(=O)c1cc(Cl)cc(Cl)c1)C(=O)N1CCC2(CCCC2)CC1 [Compound 52]
6 |  |  |  |  |  |  |  | 50 |  | CCCCCN(CCCCC)C(=O)C(CCC(=O)O)NC(=O)c1ccc(Cl)c(Cl)c1 (stereo not drawn) [R-lorglumide, reference compound]

Further lines, the compound ahead of its results:

Row | Compound | IC50 (central CCK-B receptor; guinea-pig cortical membranes) [nM] | Ratio IC50 Binding cortex / IC50 (gastric mucous cells) [1] | IC50, inhibition of the increase of cytosolic calcium [1] | inhibition of the binding of [N-methyl-N-leucine]CCK-8, result in words (central CCK-B receptor; guinea-pig cortical membranes) | IC50 order of magnitude, peripheral antigastrin activity ([1]; rabbit gastric mucous cells) | CCK-B-antagonistic activity IC50 (II) [1] [nM] | Ratio I/II (CCK-A IC50 / CCK-B IC50) (CCK-A) | IC50 (CCK-A) [nM] | times more active than the corresponding diastereoisomer at the carbon atom (**) (central CCK-B receptor; binding, guinea-pig cortex)
7 | CN(CC(=O)O)C(=O)CC[C@@H](NC(=O)c1cc(Cl)cc(Cl)c1)C(=O)N1CCC2(CCCC2)CC1 [Compound 2] | 610 | 0.7 | 1500 nM |  |  |  |  |  | 
8 | CC(C)CC(NC(=O)CC[C@@H](NC(=O)c1cc(Cl)cc(Cl)c1)C(=O)N1CCC2(CCCC2)CC1)C(=O)O (stereo partly drawn) [Compound 6] | 380 | 7.6 | 50 nM |  |  |  |  |  | 
9 | O=C(CC[C@@H](NC(=O)c1cc(Cl)cc(Cl)c1)C(=O)N1CCC2(CCCC2)CC1)NC(Cc1ccccc1)C(=O)O (stereo partly drawn) [Compound 8] | 200 | 3.3 | 60 nM |  |  |  |  |  | 
10 | CN(C(=O)CC[C@@H](NC(=O)c1cc(Cl)cc(Cl)c1)C(=O)N1CCC2(CCCC2)CC1)C(Cc1ccccc1)C(=O)O (stereo partly drawn) [Compound 11] | 220 | 3.1 | 70 nM |  |  |  |  |  | 
11 | O=C(CC[C@@H](NC(=O)c1cc(Cl)cc(Cl)c1)C(=O)N1CCC2(CCCC2)CC1)NC(CCc1ccccc1)C(=O)O (stereo partly drawn) [Compound 16] | 300 | 2.0 | 150 nM |  |  |  |  |  | 
12 | O=C(CC[C@@H](NC(=O)c1cc(Cl)cc(Cl)c1)C(=O)N1CCC2(CCCC2)CC1)NC(Cc1ccc(O)cc1)C(=O)O (stereo partly drawn) [Compound 18] | 320 | 1.6 | 200 nM |  |  |  |  |  | 
13 | O=C(CC[C@@H](NC(=O)c1cc(Cl)cc(Cl)c1)C(=O)N1CCC2(CCCC2)CC1)NC(Cc1c[nH]c2ccccc12)C(=O)O (stereo partly drawn) [Compound 19] | 50 | 5.0 | 10 nM | potent inhibitors | nanomolar order of magnitude |  |  |  | 
14 | CN(C(=O)CC[C@@H](NC(=O)c1cc(Cl)cc(Cl)c1)C(=O)N1CCC2(CCCC2)CC1)[C@@H](Cc1c[nH]c2ccccc12)C(=O)O [Compound 22] | 380 | 7.6 | 50 nM |  |  |  |  |  | 
15 | O=C(CC[C@@H](NC(=O)c1cc(Cl)cc(Cl)c1)C(=O)N1CCC2(CCCC2)CC1)N[C@H](COCc1ccccc1)C(=O)O [Compound 23] | 270 | 4.5 | 60 nM |  |  |  |  |  | 
16 | O=C(CC[C@@H](NC(=O)c1cc(Cl)cc(Cl)c1)C(=O)N1CCC2(CCCC2)CC1)N[C@H](Cc1ccc2ccccc2c1)C(=O)O [Compound 24] | 130 | 4.3 | 30 nM |  |  | 30 | 1527 | 45800 | 
17 | O=C(CC[C@@H](NC(=O)c1cc(Cl)cc(Cl)c1)C(=O)N1CCC2(CCCC2)CC1)N[C@H](Cc1ccccn1)C(=O)O [Compound 27] | 150 | 0.6 | 230 nM |  |  | 230 | 14.8 | 3400 | 
18 | O=C(CC[C@@H](NC(=O)c1cc(Cl)cc(Cl)c1)C(=O)N1CCC2(CCCC2)CC1)N[C@H](CC1CCCCC1)C(=O)O [Compound 28] | 650 | 6.5 | 100 nM |  |  |  |  |  | 
19 | CC(C)(C)CCNC(=O)[C@@H](CCC(=O)Nc1ccc(C(=O)O)cc1)NC(=O)c1cc(Cl)cc(Cl)c1 [Compound 53] | 6400 |  | IN (IN (inactive) when the IC50 is >3.10^-5 M) |  |  |  |  |  | 
